ChEMBL document CHEMBL4507311, “Data for DCP probe A-1155463” (2021)

Legend:
[1] = biological target: Myosin-IIIa (Homo sapiens) (UniProt Q8NEV4); details: Compound concentration 1000.0 nM
[2] = biological target: Mitogen-activated protein kinase kinase kinase 10 (Homo sapiens) (UniProt Q02779); details: Compound concentration 1000.0 nM
[3] = biological target: Serine/threonine-protein kinase Nek11 (Homo sapiens) (UniProt Q8NG66); details: Compound concentration 1000.0 nM
[4] = tested on: Receptor-type tyrosine-protein kinase FLT3 (Homo sapiens), P36888 [UNDEFINED MUTATION]; details: Compound concentration 1000.0 nM
[5] = biological target: Mitogen-activated protein kinase kinase kinase kinase 3 (Homo sapiens) (UniProt Q8IVH8); details: Compound concentration 1000.0 nM
[6] = biological target: Mitogen-activated protein kinase kinase kinase 11 (Homo sapiens) (UniProt Q16584); details: Compound concentration 1000.0 nM
[7] = biological target: Tyrosine-protein kinase Lyn (Homo sapiens) (UniProt P07948); details: Compound concentration 1000.0 nM
[8] = biological target: Tyrosine-protein kinase Tec (Homo sapiens) (UniProt P42680); details: Compound concentration 1000.0 nM
[9] = biological target: 5-hydroxytryptamine receptor 1B (Homo sapiens) (UniProt P28222); details: Compound concentration 10.0 uM
[10] = biological target: Phosphatidylinositol 4,5-bisphosphate 3-kinase catalytic subunit delta isoform (Homo sapiens) (UniProt O00329); details: Compound concentration 1000.0 nM
[11] = biological target: Serine/threonine-protein kinase MARK2 (Homo sapiens) (UniProt Q7KZI7); details: Compound concentration 1000.0 nM
[12] = biological target: Fibroblast growth factor receptor 3 (Homo sapiens) (UniProt P22607); details: Compound concentration 1000.0 nM
[13] = biological target: Phosphatidylinositol 4-phosphate 5-kinase type-1 alpha (Homo sapiens) (UniProt Q99755); details: Compound concentration 1000.0 nM
[14] = biological target: Myosin-IIIb (Homo sapiens) (UniProt Q8WXR4); details: Compound concentration 1000.0 nM
[15] = biological target: Cyclin-dependent kinase 4 (Homo sapiens) (UniProt P11802); details: Compound concentration 1000.0 nM
[16] = biological target: Dual specificity mitogen-activated protein kinase kinase 4 (Homo sapiens) (UniProt P45985); details: Compound concentration 1000.0 nM
[17] = biological target: Tyrosine-protein kinase BTK (Homo sapiens) (UniProt Q06187); details: Compound concentration 1000.0 nM
[18] = biological target: Misshapen-like kinase 1 (Homo sapiens) (UniProt Q8N4C8); details: Compound concentration 1000.0 nM
[19] = biological target: Serine/threonine-protein kinase pim-3 (Homo sapiens) (UniProt Q86V86); details: Compound concentration 1000.0 nM
[20] = biological target: Serine/threonine-protein kinase Nek10 (Homo sapiens) (UniProt Q6ZWH5); details: Compound concentration 1000.0 nM
[21] = biological target: Protein-tyrosine kinase 6 (Homo sapiens) (UniProt Q13882); details: Compound concentration 1000.0 nM
[22] = biological target: Myosin light chain kinase (Homo sapiens) (UniProt Q32MK0); details: Compound concentration 1000.0 nM
[23] = biological target: Receptor tyrosine-protein kinase erbB-4 (Homo sapiens) (UniProt Q15303); details: Compound concentration 1000.0 nM
[24] = biological target: Serine/threonine-protein kinase Sgk1 (Homo sapiens) (UniProt O00141); details: Compound concentration 1000.0 nM
[25] = biological target: Serine/threonine-protein kinase MRCK alpha (Homo sapiens) (UniProt Q5VT25); details: Compound concentration 1000.0 nM
[26] = biological target: Maternal embryonic leucine zipper kinase (Homo sapiens) (UniProt Q14680); details: Compound concentration 1000.0 nM
[27] = biological target: Ephrin type-B receptor 1 (Homo sapiens) (UniProt P54762); details: Compound concentration 1000.0 nM
[28] = biological target: Receptor-type tyrosine-protein kinase FLT3 (Homo sapiens) (UniProt P36888); details: Compound concentration 1000.0 nM
[29] = biological target: cAMP-dependent protein kinase catalytic subunit PRKX (Homo sapiens) (UniProt P51817); details: Compound concentration 1000.0 nM
[30] = biological target: Mitogen-activated protein kinase kinase kinase kinase 1 (Homo sapiens) (UniProt Q92918); details: Compound concentration 1000.0 nM
[31] = tested on: Phosphatidylinositol 4,5-bisphosphate 3-kinase catalytic subunit alpha isoform (Homo sapiens), P42336 [C420R]; details: Compound concentration 1000.0 nM
[32] = biological target: Mitogen-activated protein kinase 13 (Homo sapiens) (UniProt O15264); details: Compound concentration 1000.0 nM
[33] = biological target: Atypical kinase COQ8B, mitochondrial (Homo sapiens) (UniProt Q96D53); details: Compound concentration 1000.0 nM
[34] = biological target: Tyrosine-protein kinase receptor Tie-1 (Homo sapiens) (UniProt P35590); details: Compound concentration 1000.0 nM
[35] = biological target: Mitogen-activated protein kinase kinase kinase 14 (Homo sapiens) (UniProt Q99558); details: Compound concentration 1000.0 nM
[36] = biological target: Ribosomal protein S6 kinase alpha-3 (Homo sapiens) (UniProt P51812); details: Compound concentration 1000.0 nM
[37] = biological target: Cyclin-dependent kinase 11A (Homo sapiens) (UniProt Q9UQ88); details: Compound concentration 1000.0 nM
[38] = biological target: Calcium/calmodulin-dependent protein kinase kinase 1 (Homo sapiens) (UniProt Q8N5S9); details: Compound concentration 1000.0 nM
[39] = biological target: Serine/threonine-protein kinase RIO1 (Homo sapiens) (UniProt Q9BRS2); details: Compound concentration 1000.0 nM
[40] = biological target: Mitogen-activated protein kinase 11 (Homo sapiens) (UniProt Q15759); details: Compound concentration 1000.0 nM
[41] = biological target: Ephrin type-B receptor 4 (Homo sapiens) (UniProt P54760); details: Compound concentration 1000.0 nM
[42] = tested on: Receptor-type tyrosine-protein kinase FLT3 (Homo sapiens), P36888 [K663Q]; details: Compound concentration 1000.0 nM
[43] = biological target: Mitogen-activated protein kinase kinase kinase 19 (Homo sapiens) (UniProt Q56UN5); details: Compound concentration 1000.0 nM
[44] = biological target: Serine/threonine-protein kinase 26 (Homo sapiens) (UniProt Q9P289); details: Compound concentration 1000.0 nM
[45] = biological target: Serine/threonine-protein kinase TAO2 (Homo sapiens) (UniProt Q9UL54); details: Compound concentration 1000.0 nM

Sequence of Receptor tyrosine-protein kinase erbB-4 (Homo sapiens) (Q15303 whole entry): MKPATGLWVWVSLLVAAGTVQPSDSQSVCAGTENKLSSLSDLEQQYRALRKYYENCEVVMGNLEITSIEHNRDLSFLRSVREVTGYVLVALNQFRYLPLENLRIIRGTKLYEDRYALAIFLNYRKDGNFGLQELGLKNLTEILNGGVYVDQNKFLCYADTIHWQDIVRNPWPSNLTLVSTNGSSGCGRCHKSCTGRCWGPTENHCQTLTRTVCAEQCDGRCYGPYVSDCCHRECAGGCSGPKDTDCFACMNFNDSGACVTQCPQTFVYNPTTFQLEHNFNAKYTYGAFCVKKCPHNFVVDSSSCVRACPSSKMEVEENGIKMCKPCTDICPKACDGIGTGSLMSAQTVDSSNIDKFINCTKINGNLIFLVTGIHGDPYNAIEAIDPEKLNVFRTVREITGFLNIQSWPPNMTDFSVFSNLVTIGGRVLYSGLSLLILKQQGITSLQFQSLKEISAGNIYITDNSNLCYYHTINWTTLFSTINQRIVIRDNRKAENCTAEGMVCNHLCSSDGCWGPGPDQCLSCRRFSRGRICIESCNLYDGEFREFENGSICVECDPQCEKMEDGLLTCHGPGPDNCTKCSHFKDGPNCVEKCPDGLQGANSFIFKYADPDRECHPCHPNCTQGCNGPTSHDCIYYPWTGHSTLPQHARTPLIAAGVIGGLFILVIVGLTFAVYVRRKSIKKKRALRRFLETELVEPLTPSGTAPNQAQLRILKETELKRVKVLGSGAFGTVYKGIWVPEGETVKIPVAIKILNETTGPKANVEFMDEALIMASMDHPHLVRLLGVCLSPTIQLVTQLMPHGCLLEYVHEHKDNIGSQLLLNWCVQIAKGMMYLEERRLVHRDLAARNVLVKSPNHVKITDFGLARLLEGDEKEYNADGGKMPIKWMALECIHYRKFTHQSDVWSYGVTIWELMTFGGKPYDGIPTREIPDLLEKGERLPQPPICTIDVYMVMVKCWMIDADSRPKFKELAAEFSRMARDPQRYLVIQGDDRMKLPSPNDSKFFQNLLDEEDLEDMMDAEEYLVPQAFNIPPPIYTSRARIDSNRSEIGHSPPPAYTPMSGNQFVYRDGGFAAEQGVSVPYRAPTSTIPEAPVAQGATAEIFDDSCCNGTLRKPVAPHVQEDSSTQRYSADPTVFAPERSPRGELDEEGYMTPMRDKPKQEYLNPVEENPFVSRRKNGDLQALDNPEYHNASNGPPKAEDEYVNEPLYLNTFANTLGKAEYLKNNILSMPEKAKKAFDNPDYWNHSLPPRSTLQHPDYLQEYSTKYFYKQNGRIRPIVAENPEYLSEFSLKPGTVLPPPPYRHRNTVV
Sequence of Tyrosine-protein kinase Tec (Homo sapiens) (P42680 whole entry): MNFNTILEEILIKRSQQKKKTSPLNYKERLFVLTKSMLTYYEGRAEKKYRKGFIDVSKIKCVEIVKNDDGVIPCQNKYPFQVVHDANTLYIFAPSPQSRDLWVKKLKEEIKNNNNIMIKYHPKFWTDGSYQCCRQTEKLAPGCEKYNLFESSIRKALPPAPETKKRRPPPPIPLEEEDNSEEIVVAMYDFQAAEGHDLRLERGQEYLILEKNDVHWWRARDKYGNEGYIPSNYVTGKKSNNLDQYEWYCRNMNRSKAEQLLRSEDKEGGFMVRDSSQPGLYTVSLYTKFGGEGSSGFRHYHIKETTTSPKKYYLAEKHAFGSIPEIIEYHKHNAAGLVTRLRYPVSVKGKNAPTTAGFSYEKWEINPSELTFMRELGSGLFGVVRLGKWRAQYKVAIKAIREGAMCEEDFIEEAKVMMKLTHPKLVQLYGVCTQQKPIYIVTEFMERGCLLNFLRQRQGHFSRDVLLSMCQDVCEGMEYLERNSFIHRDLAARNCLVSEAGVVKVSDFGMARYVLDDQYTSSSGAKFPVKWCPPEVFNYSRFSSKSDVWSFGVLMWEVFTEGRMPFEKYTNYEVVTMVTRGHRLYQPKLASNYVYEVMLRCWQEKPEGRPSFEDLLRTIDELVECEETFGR
Sequence of Calcium/calmodulin-dependent protein kinase kinase 1 (Homo sapiens) (Q8N5S9 whole entry, looked up): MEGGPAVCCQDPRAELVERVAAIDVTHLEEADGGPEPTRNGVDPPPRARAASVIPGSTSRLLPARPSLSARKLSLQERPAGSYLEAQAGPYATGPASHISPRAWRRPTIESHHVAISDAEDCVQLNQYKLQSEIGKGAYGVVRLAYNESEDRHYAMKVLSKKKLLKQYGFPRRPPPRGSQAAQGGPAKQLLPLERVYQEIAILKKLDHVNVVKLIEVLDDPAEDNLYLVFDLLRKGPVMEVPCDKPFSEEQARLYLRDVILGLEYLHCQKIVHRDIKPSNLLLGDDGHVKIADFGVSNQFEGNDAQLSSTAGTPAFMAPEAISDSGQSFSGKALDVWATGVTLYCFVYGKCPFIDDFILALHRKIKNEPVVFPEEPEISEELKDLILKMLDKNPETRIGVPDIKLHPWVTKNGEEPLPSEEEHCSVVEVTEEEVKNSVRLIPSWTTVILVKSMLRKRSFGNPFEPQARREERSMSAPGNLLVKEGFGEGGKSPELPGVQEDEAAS
Sequence of Serine/threonine-protein kinase Nek10 (Homo sapiens) (Q6ZWH5 whole entry): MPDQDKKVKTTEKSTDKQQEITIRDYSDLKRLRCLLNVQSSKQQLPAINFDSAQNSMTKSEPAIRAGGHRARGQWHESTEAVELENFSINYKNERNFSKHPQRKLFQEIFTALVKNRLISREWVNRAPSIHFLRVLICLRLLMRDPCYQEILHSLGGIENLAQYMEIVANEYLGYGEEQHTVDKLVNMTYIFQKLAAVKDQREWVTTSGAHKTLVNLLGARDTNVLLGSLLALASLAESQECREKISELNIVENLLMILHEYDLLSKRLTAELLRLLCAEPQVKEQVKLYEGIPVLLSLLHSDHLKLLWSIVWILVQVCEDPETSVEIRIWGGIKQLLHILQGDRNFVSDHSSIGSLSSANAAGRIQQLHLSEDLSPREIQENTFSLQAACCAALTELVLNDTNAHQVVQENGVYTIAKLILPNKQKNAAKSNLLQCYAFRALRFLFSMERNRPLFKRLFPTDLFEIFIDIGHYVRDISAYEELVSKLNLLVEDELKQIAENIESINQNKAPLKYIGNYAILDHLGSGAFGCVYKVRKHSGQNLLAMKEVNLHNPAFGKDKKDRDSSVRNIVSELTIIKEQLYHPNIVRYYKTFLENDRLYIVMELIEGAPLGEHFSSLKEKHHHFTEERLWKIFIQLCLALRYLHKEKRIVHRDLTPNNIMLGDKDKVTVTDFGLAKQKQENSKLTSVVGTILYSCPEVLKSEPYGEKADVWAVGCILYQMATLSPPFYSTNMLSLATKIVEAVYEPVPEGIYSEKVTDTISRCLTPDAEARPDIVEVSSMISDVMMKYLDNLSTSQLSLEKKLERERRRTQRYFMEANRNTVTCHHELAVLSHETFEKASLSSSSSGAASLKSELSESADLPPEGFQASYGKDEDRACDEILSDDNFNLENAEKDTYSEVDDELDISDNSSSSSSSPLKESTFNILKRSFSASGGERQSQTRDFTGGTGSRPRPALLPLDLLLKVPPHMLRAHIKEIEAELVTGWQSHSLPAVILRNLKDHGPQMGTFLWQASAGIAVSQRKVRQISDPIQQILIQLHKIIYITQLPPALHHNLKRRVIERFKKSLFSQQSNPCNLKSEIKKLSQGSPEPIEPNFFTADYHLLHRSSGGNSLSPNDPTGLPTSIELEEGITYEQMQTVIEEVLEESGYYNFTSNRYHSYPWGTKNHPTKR
Sequence of Maternal embryonic leucine zipper kinase (Homo sapiens) (Q14680 whole entry, looked up): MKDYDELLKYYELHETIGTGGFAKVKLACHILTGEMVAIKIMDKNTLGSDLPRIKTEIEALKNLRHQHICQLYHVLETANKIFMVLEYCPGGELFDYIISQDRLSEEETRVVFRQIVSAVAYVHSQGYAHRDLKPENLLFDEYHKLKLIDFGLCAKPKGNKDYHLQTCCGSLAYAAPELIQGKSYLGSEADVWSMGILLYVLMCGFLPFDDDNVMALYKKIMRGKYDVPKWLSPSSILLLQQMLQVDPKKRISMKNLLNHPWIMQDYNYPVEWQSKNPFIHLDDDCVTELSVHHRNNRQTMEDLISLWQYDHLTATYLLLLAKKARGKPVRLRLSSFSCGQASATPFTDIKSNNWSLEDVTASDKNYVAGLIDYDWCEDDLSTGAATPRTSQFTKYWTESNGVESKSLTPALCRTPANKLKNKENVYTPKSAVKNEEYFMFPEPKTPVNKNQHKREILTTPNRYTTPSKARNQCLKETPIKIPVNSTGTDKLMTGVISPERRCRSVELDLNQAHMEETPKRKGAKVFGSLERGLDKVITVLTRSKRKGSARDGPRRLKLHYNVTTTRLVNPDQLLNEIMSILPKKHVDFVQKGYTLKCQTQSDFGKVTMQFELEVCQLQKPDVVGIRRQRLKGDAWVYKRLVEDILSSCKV
Sequence of cAMP-dependent protein kinase catalytic subunit PRKX (Homo sapiens) (P51817 whole entry): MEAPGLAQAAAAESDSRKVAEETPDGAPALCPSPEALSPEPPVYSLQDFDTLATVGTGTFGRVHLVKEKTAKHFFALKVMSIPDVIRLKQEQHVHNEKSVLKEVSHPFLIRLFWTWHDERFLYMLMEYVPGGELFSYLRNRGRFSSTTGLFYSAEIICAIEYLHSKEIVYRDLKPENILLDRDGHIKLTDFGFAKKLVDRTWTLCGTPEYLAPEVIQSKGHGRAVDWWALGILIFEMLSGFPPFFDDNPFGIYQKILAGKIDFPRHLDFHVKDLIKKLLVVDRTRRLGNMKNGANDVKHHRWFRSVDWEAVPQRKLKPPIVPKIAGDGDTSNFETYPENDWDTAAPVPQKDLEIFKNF
Sequence of 5-hydroxytryptamine receptor 1B (Homo sapiens) (P28222 whole entry, canonical isoform): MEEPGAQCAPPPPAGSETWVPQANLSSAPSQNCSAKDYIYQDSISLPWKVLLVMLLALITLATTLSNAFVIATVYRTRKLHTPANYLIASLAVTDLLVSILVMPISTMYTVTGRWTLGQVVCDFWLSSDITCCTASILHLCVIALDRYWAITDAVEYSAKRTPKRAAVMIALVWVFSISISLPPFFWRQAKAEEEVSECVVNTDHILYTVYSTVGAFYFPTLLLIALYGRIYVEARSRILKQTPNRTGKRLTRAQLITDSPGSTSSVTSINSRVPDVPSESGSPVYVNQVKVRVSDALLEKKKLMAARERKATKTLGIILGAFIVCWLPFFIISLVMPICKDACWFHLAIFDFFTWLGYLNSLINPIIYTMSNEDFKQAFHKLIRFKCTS

CN(C)CC#Cc1ccc(OCCCc2sc(N3CCc4cccc(C(=O)Nc5nc6ccccc6s5)c4C3)nc2C(=O)O)c(F)c1 [A-1155463]
inactive: residual activity [1] 100% | residual activity [2] 100% | residual activity [3] 100% | residual activity [4] 100% | residual activity [5] 92% | residual activity [6] 100% | residual activity [7] 100% | residual activity [8] 97% | inhibition [9] 20.2% | residual activity [10] 100% | residual activity [11] 100% | residual activity [12] 98% | residual activity [13] 100% | residual activity [14] 96% | residual activity [15] 100% | residual activity [16] 100% | residual activity [17] 96% | residual activity [18] 88% | residual activity [19] 91% | residual activity [20] 87% | residual activity [21] 96% | residual activity [22] 78% | residual activity [23] 99% | residual activity [24] 100% | residual activity [25] 97% | residual activity [26] 78% | residual activity [27] 100% | residual activity [28] 95% | residual activity [29] 98% | residual activity [30] 93% | residual activity [31] 100% | residual activity [32] 97% | residual activity [33] 99% | residual activity [34] 85% | residual activity [35] 100% | residual activity [36] 100% | residual activity [37] 100% | residual activity [38] 87% | residual activity [39] 91% | residual activity [40] 100% | residual activity [41] 100% | residual activity [42] 100% | residual activity [43] 95% | residual activity [44] 80% | residual activity [45] 100%
